{"source": "paper PMC5626944", "about": "(Frontiers in Pharmacology, 2017)", "key": {"[1]": {"conditions": "0.2 mg/kg ip; for [TC299423] in assay: brain; for Blood measurements: [TC299423]: serum", "description": "Uninjected mice served as controls (n = 3 for each group). Trunk blood was collected into heparinized 1.5 mL polyethylene tubes. The tubes were centrifuged and the serum was collected. […] The cerebral cortex was dissected, placed in 1 mL of cold water, homogenized, and diluted to 3 mL with cold water. Epibatidine saturation curves were constructed for the cortical samples using eight concentrations of [^125I]epibatidine measured in triplicate (6, 12, 25, 50, 100, 200, 400, and 800 pM). The final assay volume was […] 50 μL of homogenate was added to each sample. Blanks included 100 μM nicotine. Samples were incubated at room temperature overnight. The samples were filtered, washed and counted. Inhibition of [^125I]epibatidine (325 pM) binding was measured by adding 1, 2, 5, 10, or 20 μL of serum to samples. The washed, particulate fraction from C57BL/6 cortex was the source of the binding sites."}, "male Wistar rats": {"system": "male Wistar rats", "assay": "Rat intravenous nicotine self-administration", "assay_type": "in vivo", "conditions": "0.01, 0.025, 0.05, 0.08 mg/kg ip, 20 min before session; nicotine 0.03 mg/kg/inf", "description": "Operant chambers (Med Associates, East Fairfield, VT, United States) were used for food delivery and the intravenous self-administration (IVSA) of nicotine.\nFor IV catheter implantation, the rats were anesthetized using 1–3% isoflurane inhalation in oxygen and surgically prepared with catheters in the left jugular vein ([Kenny et al., 2008]). The catheter was passed subcutaneously to a polyethylene assembly mounted on the animals’ back. Prior to training, rats were food-restricted so that their body weight was approximately ∼85% that of free-feeding rats. They were then trained to press an active lever for 45 mg food pellets on a fixed ratio 5 time-out 20 s (FR5TO20) schedule of reinforcement. […] Pressing this lever was recorded but was not associated with scheduled consequence. Rats were permitted to respond for food rewards until a reliable response was achieved, defined as >90 pellets earned per 1 h session for three consecutive sessions. Rats were then permitted to respond for food (n = 8) or for nicotine infusions (n = 9) during 1 h daily sessions under the FR5TO20 schedule. […]\nTwenty min after injection, rats were placed in the operant boxes and responding for food rewards or nicotine infusions was recorded. […]"}, "WT and α6L9′S mice": {"system": "WT and α6L9′S mice", "assay": "Locomotor assay in a novel environment", "assay_type": "in vivo, mouse", "conditions": "0.5 μmol/kg ip (nicotine 0.08 mg/kg, TC299423 0.09 mg/kg)", "description": "Mice were habituated to the experimental room for 2 h prior to the experiment. Horizontal locomotor activity was recorded using an infrared photobeam activity cage system (San Diego Instruments; San Diego, CA, United States). After habituating to the experimental room, mice were placed singly in a novel cage. Ambulations were recorded when two contiguous photobeams were broken in succession, preventing activity from being recorded by most sedentary animals. Ambulation events were measured for 45 min with four 15 s intervals per min. Mice were given a total of two intraperitoneal (ip) injections. First, mice were pre-injected with saline or 1 mg/kg mecamylamine before being placed in the activity cages."}, "Adrenergic, Alpha 2A (h)": {"system": "T1, Adrenergic, Alpha 2A (h)", "T1 construct": "PerkinElmer – Caliper Life Sciences (NovaScreen service)", "assay": "NovaScreen competition binding", "parameters": "species or system human", "conditions": "1 µM"}, "Adrenergic, Alpha 2C (h)": {"system": "T2, Adrenergic, Alpha 2C (h)", "T2 construct": "PerkinElmer – Caliper Life Sciences (NovaScreen service)", "assay": "NovaScreen competition binding", "parameters": "species or system human", "conditions": "1 µM"}, "Adrenergic, Beta 1 (h)": {"system": "Adrenergic, Beta 1 (h)", "assay": "NovaScreen competition binding", "parameters": "species or system human", "conditions": "1 µM"}, "Dopamine Transporter": {"system": "Dopamine Transporter", "assay": "NovaScreen competition binding", "conditions": "1 µM"}, "[2]": {"system": "T3, GABA A, BDZ, alpha 1 site", "T3 construct": "PerkinElmer – Caliper Life Sciences (NovaScreen)", "assay": "NovaScreen competition binding", "conditions": "1 µM"}, "Histamine, H2": {"system": "T4, Histamine, H2", "T4 construct": "PerkinElmer – Caliper Life Sciences (NovaScreen)", "assay": "NovaScreen competition binding", "conditions": "1 µM"}, "Serotonin, 5HT4": {"system": "Serotonin, 5HT4", "assay": "NovaScreen competition binding", "conditions": "1 µM"}, "Serotonin, 5HT5A (h)": {"system": "Serotonin, 5HT5A (h)", "assay": "NovaScreen competition binding", "parameters": "species or system human", "conditions": "1 µM"}, "[3]": {"system": "Calcium Channel, Type L (Dihydropyridine Site)", "assay": "NovaScreen competition binding", "conditions": "1 µM"}, "[4]": {"system": "Nicotinic, Neuronal (α-BnTx insensitive)", "assay": "NovaScreen competition binding", "conditions": "1 µM", "description": "(§1) Assays included the nicotinic drug [^3H]epibatidine binding to α-bungarotoxin-insensitive nAChRs, the 5-HT3 inhibitor [N-methyl-^3H]GR65630 to mouse receptors in N1E-115 cells, and human receptors expressed in a clonal cell line. Other assays included monoamine oxidase A, monoamine oxidase B, 5-HT transporter, norepinephrine transporter, and dopamine transporter, as well as other. G-protein-coupled receptors, ion channels, enzymes, and transporters."}, "[5]": {"system": "Potassium Channel, ATP-Sensitive", "assay": "NovaScreen competition binding", "conditions": "1 µM", "description": "as §1"}, "[6]": {"system": "Potassium Channel, I[Kr] (hERG) (h)", "assay": "NovaScreen competition binding", "parameters": "species or system human", "conditions": "1 µM"}, "[7]": {"system": "hERG potassium channel (IKr)", "assay": "NovaScreen competition binding", "parameters": "species or system human", "conditions": "human, probe [3H]Astemizole, [3H]Astemizole"}, "Endothelin, ET-A (h)": {"system": "T5, Endothelin, ET-A (h)", "T5 construct": "PerkinElmer – Caliper Life Sciences (NovaScreen service)", "assay": "NovaScreen competition binding", "parameters": "species or system human", "conditions": "1 µM"}, "Esterase, Acetylcholine": {"system": "Esterase, Acetylcholine", "assay": "NovaScreen enzyme assay", "assay_type": "biochemical", "conditions": "1 µM"}, "Kinase, Protein, PKA (h)": {"system": "T6, Kinase, Protein, PKA (h)", "T6 construct": "PerkinElmer – Caliper Life Sciences (NovaScreen service)", "assay": "NovaScreen enzyme assay", "assay_type": "biochemical, human", "conditions": "1 µM"}}, "note": "Like-named read-outs stand apart in the source and are kept apart here.", "data": [{"compound": "C1=C(/c2cncnc2)CCCNCC/1", "note": "[TC299423, (E)-5-(pyrimidin-5-yl)-1,2,3,4,7,8-hexahydroazocine]", "values": [{"measurement": "Duration of brain penetration and availability to nAChRs", "setting": "[1]", "result": "≥ 20", "unit": "min"}, {"measurement": "[TC299423] in brain", "setting": "[1]; 5 min", "result": "45 ± 25", "unit": "pmol/mg"}, {"measurement": "[TC299423] in brain", "setting": "[1]; 10 min", "result": "88 ± 18", "unit": "pmol/mg"}, {"measurement": "[TC299423] in brain", "setting": "[1]; 20 min", "result": "73 ± 4.0", "unit": "pmol/mg"}, {"measurement": "[TC299423] in assay", "setting": "[1]; 5 min", "result": "2.2 ± 1.1", "unit": "nM"}, {"measurement": "[TC299423] in assay", "setting": "[1]; 10 min", "result": "4.4 ± 0.9", "unit": "nM"}, {"measurement": "[TC299423] in assay", "setting": "[1]; 20 min", "result": "3.7 ± 0.2", "unit": "nM"}, {"measurement": "Blood measurements: [TC299423]", "setting": "[1]; 5 min", "result": "250 ± 50", "unit": "nM"}, {"measurement": "Blood measurements: [TC299423]", "setting": "[1]; 10 min", "result": "370 ± 70", "unit": "nM"}, {"measurement": "Blood measurements: [TC299423]", "setting": "[1]; 20 min", "result": "120 ± 30", "unit": "nM"}, {"measurement": "Responding for nicotine infusions vs vehicle", "setting": "male Wistar rats", "result": "no statistically significant changes"}, {"measurement": "Ambulatory activity in a novel environment", "setting": "WT and α6L9′S mice; WT mice", "result": "Neither TC299423 nor nicotine affected WT ambulation"}, {"measurement": "Ambulatory activity in a novel environment", "setting": "WT and α6L9′S mice; α6L9′S mice", "result": "dramatically increased the ambulatory activity"}, {"measurement": "Hit", "setting": "Adrenergic, Alpha 2A (h)", "result": "FALSE"}, {"measurement": "Inhibition", "setting": "Adrenergic, Alpha 2A (h); [3H]MK-912", "result": 6.75, "unit": "%"}, {"measurement": "Hit", "setting": "Adrenergic, Alpha 2C (h)", "result": "FALSE"}, {"measurement": "Inhibition", "setting": "Adrenergic, Alpha 2C (h); [3H]MK-912", "result": 6.28, "unit": "%"}, {"measurement": "Hit", "setting": "Adrenergic, Beta 1 (h)", "result": "FALSE"}, {"measurement": "Inhibition", "setting": "Adrenergic, Beta 1 (h); [125I] (-) Iodocyanopindolol", "result": 11.21, "unit": "%"}, {"measurement": "Hit", "setting": "Dopamine Transporter", "result": "FALSE"}, {"measurement": "Inhibition", "setting": "Dopamine Transporter; [3H]WIN 35,428", "result": -5.87, "unit": "%"}, {"measurement": "Hit", "setting": "[2]", "result": "FALSE"}, {"measurement": "Inhibition", "setting": "[2]; [3H]Flunitrazepam", "result": 11.84, "unit": "%"}, {"measurement": "Hit", "setting": "Histamine, H2", "result": "FALSE"}, {"measurement": "Inhibition", "setting": "Histamine, H2; [125I]-Aminopotentidine", "result": 6.50, "unit": "%"}, {"measurement": "Hit", "setting": "Serotonin, 5HT4", "result": "FALSE"}, {"measurement": "Inhibition", "setting": "Serotonin, 5HT4; [3H]GR 113808", "result": -16.64, "unit": "%"}, {"measurement": "Hit", "setting": "Serotonin, 5HT5A (h)", "result": "FALSE"}, {"measurement": "Inhibition", "setting": "Serotonin, 5HT5A (h); [3H]-LSD", "result": 1.24, "unit": "%"}, {"measurement": "Hit", "setting": "[3]", "result": "FALSE"}, {"measurement": "Inhibition", "setting": "[3]; [3H]Nitrendipine", "result": -3.91, "unit": "%"}, {"measurement": "Hit", "setting": "[4]", "result": "TRUE (TC299423 inhibited >50% of the reference radioligand for two sites)"}, {"measurement": "Inhibition", "setting": "[4]; [3H]Epibatidine", "result": 93.33, "unit": "%"}, {"measurement": "Hit", "setting": "[5]", "result": "TRUE (TC299423 inhibited >50% of the reference radioligand for two sites)"}, {"measurement": "Inhibition", "setting": "[5]; [3H]Glibenclamide", "result": 52.12, "unit": "%"}, {"measurement": "Hit", "setting": "[6]", "result": "FALSE"}, {"measurement": "inhibition at 1 µM", "setting": "[7]", "result": 14.5, "unit": "%"}, {"measurement": "Hit", "setting": "Endothelin, ET-A (h)", "result": "FALSE"}, {"measurement": "Inhibition", "setting": "Endothelin, ET-A (h); [125I] Endothelin-1", "result": 8.93, "unit": "%"}, {"measurement": "Hit", "setting": "Esterase, Acetylcholine", "result": "FALSE"}, {"measurement": "Inhibition", "setting": "Esterase, Acetylcholine; substrate Acetylthiocholine", "result": 21.55, "unit": "%"}, {"measurement": "Hit", "setting": "Kinase, Protein, PKA (h)", "result": "FALSE"}, {"measurement": "Inhibition", "setting": "Kinase, Protein, PKA (h); substrate Fluorescein-labeled peptide", "result": -5.00, "unit": "%"}]}]}
